# Measured values from patent US20150259331A1, “PROTOZOAN PARASITE GROWTH INHIBITORS” (Northeastern University, priority 2014, published 2015).
# pEC50: −log10 of the molar value. Where two headings read alike, the source gives them in different places.
# What was measured:
# [1] = Mouse oral pharmacokinetic study; assay type: in vivo, male BALB/c mice
# Protocol: Test system. Healthy male BALB/c mice (8-12 weeks old) weighing between 20 to 35 g were procured from In vivo biosciences, Bengaluru, India. Maximum three mice were housed in each polycarbonate cage. […] The temperature and humidity were recorded by auto-controlled data logger system. Animals were provided laboratory rodent diet ([…], Bengaluru) ad libitum and were provided fresh water ad libitum (reverse osmosis water treated with UV light). Study Design. […] The dosing volume administered for was 10 mL/kg. Formulation Preparation. Formulation of NEU-617 was given orally. The strength of oral suspension formulation was 4 mg/mL. The weighed quantity (39.22 mg) of compound NEU-617 for p.o. dosing was added in a mortar. […] Sample Collection. […] The blood samples (approximately 60 μL) were collected from the retro-orbital plexus into labeled tubes, containing K2EDTA solution, as an anticoagulant. Plasma was harvested from the blood by centrifugation at 4000 rpm for 10 min at 4±2° C. and stored below -70° C. until bioanalysis. […] Following collection, the brain samples were washed by dipping in 20 mL of ice-cold phosphate buffer saline (pH 7.4), dried gently on a filter paper, weighed and placed in polypropylene tubes. Further brain samples were homogenized using ice-cold phosphate buffer saline (pH 7.4) and the total homogenate volume was thrice the brain weight. The brain samples were stored at -70° C. until bioanalysis. Data analysis. The Non-Compartmental-Analysis module in WinNonlin® (Version 5.2) was used to assess the pharmacokinetic parameters. Peak plasma concentrations (Cmax) and time for the peak plasma concentrations (Tmax) were the observed values. The areas under the concentration time curve (AUClast and AUCinf) were calculated by linear trapezoidal rule.
# [2] = system: L. major promastigote; assay: L. major promastigote assay; assay type: cell-based; details: Leishmania major
# [3] = Thermodynamic aqueous solubility; assay type: physicochemical
# [4] = system: P. falciparum D6; assay: P. falciparum D6 assay; assay type: cell-based; details: Plasmodium falciparum; strain D6
# [5] = system: P. falciparum C235; assay: P. falciparum C235 assay; assay type: cell-based; details: Plasmodium falciparum; strain C235; read-out: P. falciparum C235 (EC50)
# [6] = system: T. cruzi; assay: T. cruzi growth inhibition; assay type: cell-based, Trypanosoma cruzi; details: Trypanosoma cruzi
# [7] = system: endocytosis of transferrin; assay: Receptor-mediated endocytosis of transferrin in the trypanosome; assay type: cell-based, T. brucei
# [8] = system: T. brucei; assay: Trypanosome DNA content and organelle (cell cycle) analysis; assay type: cell-based
# Description: (§1) The kinetoplast and nucleus can be tracked by microscopy during the cell cycle, which begins with trypanosomes harboring one nucleus (1N) and one kinetoplast (1K) (i.e., 1K1N cells). A kinetoplast that is replicating its (DNA) (i.e., kDNA) and increasing the organelle's mass is observed as an elongated kinetoplast (1Ke). Fission (segregation) of 1Ke kinetoplasts into two daughter kinetoplasts (2K) inside the same cell is coincident with the nuclear S-phase and produces 2K1N trypanosomes. Mitosis then occurs, yielding trypanosomes containing two kinetoplasts and two nuclei (2K2N). Following cell division, each daughter trypanosome has a 1K1N configuration of the organelles.
# [9] = system: L. major amastigote; assay: L. major amastigote assay; assay type: cell-based; details: Leishmania major
# [10] = male
# [11] = system: T. brucei brucei Lister 427; assay: Trypanosome replication assay; assay type: cell-based, Trypanosoma brucei brucei; details: Trypanosoma brucei
# [12] = system: T. brucei brucei CA427; assay: Drug efficacy in a mouse model of human African trypanosomiasis
# Description: as §1
# Swiss Webster (female) mice, aged 8-10 weeks, were intraperitoneally inoculated with 10^3 T. brucei CA427 strain using a 1 ml hypodermic syringe and 26G ½″ needle (day 0). The mice were assigned to control or NEU617 -treated groups (four per group). Treatment was initiated one-day post infection for two weeks. Control group received the vehicle only. Drug-treated mice were given 10 mg/kg NEU617 twice daily at 12 h interval (orally or intraperitoneally) based on their body weights. NEU617 was reconstituted in (i) DMSO for intraperitoneal (I.P.) administration, and (ii) N-methyl-2-pyrrolidone and polyethylene glycol 300 (1:9, v/v) for oral (P.O.) dosing. Drugs were prepared fresh daily and the concentration was adjusted so that the animals received <200 μl of solvent/dose/animal. […] Further dilutions of blood were made with bicine-buffered saline with glucose, as needed. Animals showing distress symptoms at any stage of the study were euthanized. All experiments were conducted following protocols approved by the Institutional Animal Care and Use Committee (IACUC).
# [13] = logD; assay type: physicochemical
# [14] = Protein binding (Table 14); details: plasma
# [15] = male, BALB/c, mouse, brain, 40 mg/kg PO single dose
# [16] = male, BALB/c, mouse, plasma, 40 mg/kg PO single dose
smiles,measurement,setting,value
"Fc1cccc(COc2ccc(Nc3ncnc4ccc(-c5cccc(N6CCOCC6)c5)cc34)cc2Cl)c1 [Compound 23a, N-(3-Chloro-4-((3-fluorobenzyl)oxy)phenyl)-6-(3-morpholinophenyl)quinazolin-4-amine]",CNS fraction,[1]; 40 mg/kg single oral dose,5%
same,time plasma levels were in excess of the EC50,[1]; 40 mg/kg single oral dose,> 12 h
same,AUC(0-t),[1]; [15],92.5 ng·h/mL
same,Cmax,[1]; [15],26 ng/mL
same,Tmax,[1]; [15],0.5 h
same,AUC(0-inf),[1]; [16],2000 ng·h/mL
same,AUC(0-t),[1]; [16],1950 ng·h/mL
same,Cmax,[1]; [16],153 ng/mL
same,Tmax,[1]; [16],2 h
same,pEC50,[2],5.52
same,Solubility,[3],<1 µM
same,pEC50,[4],6.64
same,pEC50,[5],6.43
same,Human liver microsomes median CLint,,63.03 µL/min/mg
same,pEC50,[6],5.74
same,effect on endocytosis of transferrin,[7],no effect
same,"effect on kinetoplast, nucleus and cytokinesis (single cell microscopy)",[8],blocks duplication of the kinetoplast and arrests cytokinesis without inhibiting division of the trypanosome nucleus
same,proportion of cells with 4C DNA,"[8]; 7 h incubation, 25% without drug",40%
same,fraction of cells with 2C-4C equivalents of DNA,"[8]; 7 h incubation, 40% without drug",25%
same,pEC50,[9],5.10
same,Male rat hepatocytes median CLint,[10],44.5 μl/min/1E6 cells
same,pEC50,"[11]; 48 h, concentration giving 50% inhibition of growth of T brucei brucei Lister 427 cells, 48 h, values ±7%, read-out: Tbb EC50",7.38
same,EC50,"[11]; read-out: EC50 expressed as ng/mL, T. brucei EC50 converted, FIG. 1 legend",22.7 ng/mL
same,delay of detection of trypanosomes in the blood,[12]; 10 mg/kg twice per day ip,24 h
same,survival on day 8,"[12]; 10 mg/kg twice per day ip, all untreated mice had died",all alive
same,mouse survival life span,"[12]; 10 mg/kg twice per day ip, control group 5 days",9 days
same,time without parasites detected in the blood of infected mice,"[12]; 40 mg/kg once per day from 24 h after infection, control positive on day 2",3 days
same,drug-related toxicity,[12]; multiday regimen at 40 mg/kg,drug-related toxicity was observed
same,logD,[13],3.2
same,fraction unbound,[14],< 0.01
